Assay results reported in the supplement of paper PMC13380429.

Legend:
Details in all cases: 72 h
[1] = system: Caco-2; experiment: cell viability relative to DMSO; higher = less toxic
[2] = system: Calu-3; experiment: as above
[3] = system: U2OS; experiment: as above
[4] = system: Vero E6; experiment: as above
[5] = system: Caco-2; experiment: relative viability EC50 (midpoint between 100% and the lowest measured viability); higher = less toxic
[6] = system: Calu-3; experiment: as above
[7] = system: U2OS; experiment: as above
[8] = system: Vero E6; experiment: as above
[9] = system: Caco-2; experiment: drug sensitivity score (DSS) for viability; higher = more toxic; extreme values may be limits of the assay
[10] = system: Calu-3; experiment: as above
[11] = system: U2OS; experiment: as above
[12] = system: Vero E6; experiment: as above
[13] = system: HepG2; experiment: cell viability relative to DMSO; higher = less toxic
[14] = system: HepG2; experiment: drug sensitivity score (DSS) for viability; higher = more toxic; extreme values may be limits of the assay

Structure (SMILES): NC(=S)N/N=C/c1ccncc1 [perchlozone]
- cell viability ([1]; 1 nM): 97.2%
- cell viability ([1]; 10 nM): 100%
- cell viability ([1]; 100 nM): 91.1%
- cell viability ([1]; 1000 nM): 106%
- cell viability ([1]; 10000 nM): 92.6%
- cell viability ([2]; 1 nM): 104%
- cell viability ([2]; 10 nM): 100%
- cell viability ([2]; 100 nM): 105%
- cell viability ([2]; 1000 nM): 95.6%
- cell viability ([2]; 10000 nM): 100%
- cell viability ([3]; 1 nM): 102%
- cell viability ([3]; 10 nM): 98.4%
- cell viability ([3]; 100 nM): 101%
- cell viability ([3]; 1000 nM): 104%
- cell viability ([3]; 10000 nM): 106%
- cell viability ([4]; 1 nM): 93.9%
- cell viability ([4]; 10 nM): 98.9%
- cell viability ([4]; 100 nM): 93.7%
- cell viability ([4]; 1000 nM): 99.2%
- cell viability ([4]; 10000 nM): 108%
- relative viability EC50 [5]: > 10 µM
- relative viability EC50 [6]: > 10 µM
- relative viability EC50 [7]: > 10 µM
- relative viability EC50 [8]: > 10 µM
- drug sensitivity score [9]: 0
- drug sensitivity score [10]: 0
- drug sensitivity score [11]: 0
- drug sensitivity score [12]: 0

Structure (SMILES): COc1ccc(C(C)=O)c(O)c1 [paeonol]
- cell viability ([1]; 1 nM): 96.6%
- cell viability ([1]; 10 nM): 96%
- cell viability ([1]; 100 nM): 103%
- cell viability ([1]; 1000 nM): 96.5%
- cell viability ([1]; 10000 nM): 110%
- cell viability ([2]; 1 nM): 95.6%
- cell viability ([2]; 10 nM): 95.9%
- cell viability ([2]; 100 nM): 91.2%
- cell viability ([2]; 1000 nM): 99.8%
- cell viability ([2]; 10000 nM): 105%
- cell viability ([3]; 1 nM): 95%
- cell viability ([3]; 10 nM): 96.8%
- cell viability ([3]; 100 nM): 95.8%
- cell viability ([3]; 1000 nM): 95.8%
- cell viability ([3]; 10000 nM): 97.7%
- cell viability ([4]; 1 nM): 95.4%
- cell viability ([4]; 10 nM): 98.7%
- cell viability ([4]; 100 nM): 96.9%
- cell viability ([4]; 1000 nM): 94.1%
- cell viability ([4]; 10000 nM): 106%
- relative viability EC50 [5]: > 10 µM
- relative viability EC50 [6]: > 10 µM
- relative viability EC50 [7]: > 10 µM
- relative viability EC50 [8]: > 10 µM
- drug sensitivity score [9]: 0
- drug sensitivity score [10]: 0
- drug sensitivity score [11]: 0
- drug sensitivity score [12]: 0

Structure (SMILES): COc1cc(/C=C/C(=O)O)ccc1O [ferulic-acid]
- cell viability ([1]; 1 nM): 99%
- cell viability ([1]; 10 nM): 97.8%
- cell viability ([1]; 100 nM): 96.4%
- cell viability ([1]; 1000 nM): 92.2%
- cell viability ([1]; 10000 nM): 103%
- cell viability ([2]; 1 nM): 93.8%
- cell viability ([2]; 10 nM): 98.6%
- cell viability ([2]; 100 nM): 103%
- cell viability ([2]; 1000 nM): 95.6%
- cell viability ([2]; 10000 nM): 94.2%
- cell viability ([3]; 1 nM): 97.8%
- cell viability ([3]; 10 nM): 102%
- cell viability ([3]; 100 nM): 99.9%
- cell viability ([3]; 1000 nM): 99.3%
- cell viability ([3]; 10000 nM): 101%
- cell viability ([4]; 1 nM): 94%
- cell viability ([4]; 10 nM): 107%
- cell viability ([4]; 100 nM): 94.5%
- cell viability ([4]; 1000 nM): 96.2%
- cell viability ([4]; 10000 nM): 107%
- relative viability EC50 [5]: > 10 µM
- relative viability EC50 [6]: > 10 µM
- relative viability EC50 [7]: > 10 µM
- relative viability EC50 [8]: > 10 µM
- drug sensitivity score [9]: 0
- drug sensitivity score [10]: 0
- drug sensitivity score [11]: 0
- drug sensitivity score [12]: 0

Structure (SMILES): C[C@@H](N)[C@@H](O)c1ccccc1 [1S,2R-phenylpropanolamine]
- cell viability ([1]; 1 nM): 98.5%
- cell viability ([1]; 10 nM): 107%
- cell viability ([1]; 100 nM): 97.4%
- cell viability ([1]; 1000 nM): 102%
- cell viability ([1]; 10000 nM): 110%
- cell viability ([2]; 1 nM): 106%
- cell viability ([2]; 10 nM): 106%
- cell viability ([2]; 100 nM): 98.8%
- cell viability ([2]; 1000 nM): 102%
- cell viability ([2]; 10000 nM): 99.7%
- cell viability ([4]; 1 nM): 101%
- cell viability ([4]; 10 nM): 101%
- cell viability ([4]; 100 nM): 101%
- cell viability ([4]; 1000 nM): 103%
- cell viability ([4]; 10000 nM): 97.7%
- relative viability EC50 [5]: > 10 µM
- relative viability EC50 [6]: > 10 µM
- relative viability EC50 [8]: > 10 µM
- drug sensitivity score [9]: 0
- drug sensitivity score [10]: 0
- drug sensitivity score [12]: 0

Structure (SMILES): CNC[C@H](O)c1ccc(O)c(O)c1 [epinephrine]
- cell viability ([1]; 1 nM): 93.7%
- cell viability ([1]; 10 nM): 105%
- cell viability ([1]; 100 nM): 86.3%
- cell viability ([1]; 1000 nM): 98.5%
- cell viability ([1]; 10000 nM): 90%
- cell viability ([2]; 1 nM): 101%
- cell viability ([2]; 10 nM): 110%
- cell viability ([2]; 100 nM): 111%
- cell viability ([2]; 1000 nM): 111%
- cell viability ([2]; 10000 nM): 97.3%
- cell viability ([13]; 1 nM): 108%
- cell viability ([13]; 10 nM): 106%
- cell viability ([13]; 100 nM): 104%
- cell viability ([13]; 1000 nM): 94.4%
- cell viability ([13]; 10000 nM): 57.5%
- cell viability ([3]; 1 nM): 96.9%
- cell viability ([3]; 10 nM): 101%
- cell viability ([3]; 100 nM): 98.2%
- cell viability ([3]; 1000 nM): 104%
- cell viability ([3]; 10000 nM): 105%
- cell viability ([4]; 1 nM): 93.3%
- cell viability ([4]; 10 nM): 89.7%
- cell viability ([4]; 100 nM): 95.1%
- cell viability ([4]; 1000 nM): 89.6%
- cell viability ([4]; 10000 nM): 111%
- relative viability EC50 [5]: > 10 µM
- relative viability EC50 [6]: > 10 µM
- relative viability EC50 [7]: > 10 µM
- relative viability EC50 [8]: > 10 µM
- drug sensitivity score [9]: 0
- drug sensitivity score [10]: 0
- drug sensitivity score [14]: 3.1
- drug sensitivity score [11]: 0
- drug sensitivity score [12]: 0

Structure (SMILES): C[C@H]1[C@H](C)CC[C@]2(C(=O)O)CC[C@]3(C)C(=CC[C@@H]4[C@@]5(C)C[C@@H](O)[C@H](O)C(C)(C)[C@@H]5CC[C@]43C)[C@H]12 [corosolic-acid]
- cell viability ([1]; 1 nM): 107%
- cell viability ([1]; 10 nM): 110%
- cell viability ([1]; 100 nM): 102%
- cell viability ([1]; 1000 nM): 108%
- cell viability ([1]; 10000 nM): 99.6%
- cell viability ([2]; 1 nM): 96.8%
- cell viability ([2]; 10 nM): 106%
- cell viability ([2]; 100 nM): 103%
- cell viability ([2]; 1000 nM): 95.3%
- cell viability ([2]; 10000 nM): 99.8%
- cell viability ([4]; 1 nM): 101%
- cell viability ([4]; 10 nM): 104%
- cell viability ([4]; 100 nM): 99.7%
- cell viability ([4]; 1000 nM): 104%
- cell viability ([4]; 10000 nM): 103%
- relative viability EC50 [5]: > 10 µM
- relative viability EC50 [6]: > 10 µM
- relative viability EC50 [8]: > 10 µM
- drug sensitivity score [9]: 0
- drug sensitivity score [10]: 0
- drug sensitivity score [12]: 0

Structure (SMILES): Cc1cc(NS(=O)(=O)c2ccc(N)cc2)no1 [sulfamethoxazole]
- drug sensitivity score [10]: 0
- drug sensitivity score [14]: 0
- drug sensitivity score [11]: 0

Structure (SMILES): N#Cc1c(O)c2c(-c3ccc(-c4ccccc4O)cc3)csc2[nH]c1=O
- cell viability ([1]; 1 nM): 97.8%
- cell viability ([1]; 10 nM): 102%
- cell viability ([1]; 100 nM): 95.2%
- cell viability ([1]; 1000 nM): 98.8%
- cell viability ([1]; 10000 nM): 96.5%
- cell viability ([2]; 1 nM): 94.3%
- cell viability ([2]; 10 nM): 94.8%
- cell viability ([2]; 100 nM): 96.7%
- cell viability ([2]; 1000 nM): 95.5%
- cell viability ([2]; 10000 nM): 104%
- cell viability ([3]; 1 nM): 103%
- cell viability ([3]; 10 nM): 108%
- cell viability ([3]; 100 nM): 99.8%
- cell viability ([3]; 1000 nM): 106%
- cell viability ([3]; 10000 nM): 99.1%
- cell viability ([4]; 1 nM): 105%
- cell viability ([4]; 10 nM): 101%
- cell viability ([4]; 100 nM): 97.3%
- cell viability ([4]; 1000 nM): 95.4%
- cell viability ([4]; 10000 nM): 99%
- relative viability EC50 [5]: > 10 µM
- relative viability EC50 [6]: > 10 µM
- relative viability EC50 [7]: > 10 µM
- relative viability EC50 [8]: > 10 µM
- drug sensitivity score [9]: 0
- drug sensitivity score [10]: 0
- drug sensitivity score [11]: 0
- drug sensitivity score [12]: 0

Structure (SMILES): C=C1C[C@@]2(O)O[C@@]3(C[C@H]2C(C)C)[C@@H](C)CC[C@@H]13 [curcumol]
- cell viability ([1]; 1 nM): 108%
- cell viability ([1]; 10 nM): 95.3%
- cell viability ([1]; 100 nM): 93.6%
- cell viability ([1]; 1000 nM): 97.3%
- cell viability ([1]; 10000 nM): 103%
- cell viability ([2]; 1 nM): 96.4%
- cell viability ([2]; 10 nM): 107%
- cell viability ([2]; 100 nM): 111%
- cell viability ([2]; 1000 nM): 101%
- cell viability ([2]; 10000 nM): 106%
- cell viability ([4]; 1 nM): 100%
- cell viability ([4]; 10 nM): 101%
- cell viability ([4]; 100 nM): 97.1%
- cell viability ([4]; 1000 nM): 91.9%
- cell viability ([4]; 10000 nM): 102%
- relative viability EC50 [5]: > 10 µM
- relative viability EC50 [6]: > 10 µM
- relative viability EC50 [8]: > 10 µM
- drug sensitivity score [9]: 0
- drug sensitivity score [10]: 0
- drug sensitivity score [12]: 0
